# Assay results as given in patent publication US11285127B2, “Compositions and methods for lowering triglycerides without raising LDL-C levels in a subject on concomitant statin therapy” (Amarin Pharmaceuticals Ireland Limited, priority 2013, dated 2022).
# Tested on: patients with fasting triglyceride levels >200 mg/dl and <500 mg/dl despite statin therapy
# Assay: 12-week study: apolipoproteins (Apo A-1, Apo B, ratio) and lipoprotein(a)
# Format: in vivo, human
# Settings: for Apo A1 Week 12 EP Median (IQR) / Apo B Week 12 EP Median (IQR) / Apo B/Apo A1 ratio Week 12 EP Median (IQR) / Lp (a) Week 12 EP Median (IQR) / Apo A1 Percent change from Baseline Median (IQR) / Apo B Percent change from Baseline Median (IQR) / Apo B/Apo A1 ratio Percent change from Baseline Median (IQR) / Lp (a) Percent change from Baseline Median (IQR) / Apo A1 Difference from placebo Estimated median / Apo B Difference from placebo Estimated median / Apo B/Apo A1 ratio Difference from placebo Estimated median / Lp (a) Difference from placebo Estimated median: MITT; for Apo A1 Percent change from Baseline Median (IQR) / Apo B Percent change from Baseline Median (IQR) / Apo B/Apo A1 ratio Percent change from Baseline Median (IQR) / Lp (a) Percent change from Baseline Median (IQR): Week 12 endpoint; for Apo A1 Difference from placebo Estimated median / Apo B Difference from placebo Estimated median / Apo B/Apo A1 ratio Difference from placebo Estimated median / Lp (a) Difference from placebo Estimated median: percent change from baseline to Week 12 endpoint
# Text: Parameters (a)-(z) can be measured in accordance with any clinically acceptable methodology. For example, triglycerides, total cholesterol, HDL-C and fasting blood sugar can be sample from serum and analyzed using standard photometry techniques. VLDL-TG, LDL-C and VLDL-C can be calculated or determined using serum lipoprotein fractionation by preparative ultracentrifugation and subsequent quantitative analysis by refractometry or by analytic ultracentrifugal methodology. Apo A1, Apo B and hsCRP can be determined from serum using standard nephelometry techniques. Lipoprotein (a) can be determined from serum using standard turbidimetric immunoassay techniques. LDL particle number and particle size can be determined using nuclear magnetic resonance (NMR) spectrometry. Remnants lipoproteins and LDL-phospholipase A2 can be determined from EDTA plasma or serum and serum, respectively, using enzymatic immunoseparation techniques. Oxidized LDL, intercellular adhesion molecule-1 and interleukin-2 levels can be determined from serum using standard enzyme immunoassay techniques. These techniques are described in detail in standard textbooks, for example Tietz Fundamentals of Clinical Chemistry, 6th Ed. (Burtis, Ashwood and Borter Eds.), WB Saunders Company.
# A multi-center, placebo-controlled, randomized, double-blind, 12-week study was performed to evaluate the efficacy and safety of >96% E-EPA in patients with fasting triglyceride levels >200 mg/dl and <500 mg/dl despite statin therapy (the mean of two qualifying entry values needed to be >185 mg/dl and at least one of the values needed to be >200 mg/dl). The primary objective of the study was to determine the efficacy of >96% E-EPA 2 g daily and 4 g daily, compared to placebo, in lowering fasting TG levels in patients with high risk for cardiovascular disease and with fasting TG levels 200 mg/dl and <500 mg/dl, despite treatment to LDL-C goal on statin therapy.
# The primary efficacy variable for the double-blind treatment period was percent change in TG from baseline to Week 12 endpoint. The secondary efficacy variables for the double-blind treatment period included the following: • Percent changes in total cholesterol (TC), high-density lipoprotein cholesterol (HDL-C), LDL-C, calculated non-HDL-C, and very low-density lipoprotein cholesterol (VLDL-C) from baseline to Week 12 endpoint; • Percent change in very low-density lipoprotein TG from baseline to Week 12; • Percent changes in apolipoprotein A-I (Apo A-1), apolipoprotein B (Apo B), and Apo A-1/Apo B ratio from baseline to Week 12; • Percent changes in lipoprotein(a) from baseline to Week 12; • Percent changes in LDL particle number and size, measured by nuclear magnetic resonance, from baseline to Week 12; • Percent change in remnant-like particle cholesterol from baseline to Week 12; • Percent change in oxidized LDL from baseline to Week 12; • Changes in FPG and HbA1c from baseline to Week 12; • Change in insulin resistance, as assessed by the homeostasis model index insulin resistance, from baseline to Week 12; • Percent change in lipoprotein associated phospholipase A2 (Lp-PLA2) from baseline to Week 12; • Change in intracellular adhesion molecule-1 from baseline to Week 12; • Change in interleukin-2 from baseline to Week 12; • Change in plasminogen activator inhibitor-1 from baseline to Week 12. Note: this parameter will only be collected at sites with proper storage conditions; • Change in hsCRP from baseline to Week 12; and • Change in plasma concentration and red blood cell membrane content of fatty acid from baseline to Week 12 including EPA, docosapentaenoic acid (DPA), docosahexaenoic acid (DHA), arachidonic acid (AA), dihomo-γ-linolenic acid (DGLA), the ratio of EPA/AA, ratio of oleic acid/stearic acid (OA/SA), and the ratio of total omega-3 acids over total omega-6 acids. […]
# [1] = IPE 4 g/day (n = 216), 12 weeks, patients with lipoprotein data
structure (smiles),measurement,setting,value
"CC/C=C\C/C=C\C/C=C\C/C=C\C/C=C\CCCC(=O)OCC [AMR101, ethyl eicosapentaenoate]",Apo A1 Week 12 EP Median (IQR),AMR101 2 g/d + statin,141.0 (26.0) mg/dL
same,Apo B Week 12 EP Median (IQR),AMR101 2 g/d + statin,95.0 (24.0) mg/dL
same,Apo B/Apo A1 ratio Week 12 EP Median (IQR),AMR101 2 g/d + statin,0.7 (0.2)
same,Lp (a) Week 12 EP Median (IQR),AMR101 2 g/d + statin,12.0 (33.0) mg/dL
same,Apo A1 Percent change from Baseline Median (IQR),AMR101 2 g/d + statin,2.0 (13.0) %
same,Apo B Percent change from Baseline Median (IQR),AMR101 2 g/d + statin,1.6 (20.7) %
same,Apo B/Apo A1 ratio Percent change from Baseline Median (IQR),AMR101 2 g/d + statin,0.1 (18.3) %
same,Lp (a) Percent change from Baseline Median (IQR),AMR101 2 g/d + statin,0.0 (24.9) %
same,Apo A1 Difference from placebo Estimated median,AMR101 2 g/d + statin,−1.7%
same,Apo B Difference from placebo Estimated median,AMR101 2 g/d + statin,−3.8%
same,Apo B/Apo A1 ratio Difference from placebo Estimated median,AMR101 2 g/d + statin,−2.0%
same,Lp (a) Difference from placebo Estimated median,AMR101 2 g/d + statin,0.0%
same,Apo A1 Week 12 EP Median (IQR),AMR101 4 g/d + statin,137.0 (29.0) mg/dL
same,Apo B Week 12 EP Median (IQR),AMR101 4 g/d + statin,90.0 (25.0) mg/dL
same,Apo B/Apo A1 ratio Week 12 EP Median (IQR),AMR101 4 g/d + statin,0.7 (0.2)
same,Lp (a) Week 12 EP Median (IQR),AMR101 4 g/d + statin,9.0 (31.0) mg/dL
same,Apo A1 Percent change from Baseline Median (IQR),AMR101 4 g/d + statin,−2.9 (12.6) %
same,Apo B Percent change from Baseline Median (IQR),AMR101 4 g/d + statin,−2.2 (16.4) %
same,Apo B/Apo A1 ratio Percent change from Baseline Median (IQR),AMR101 4 g/d + statin,−0.7 (20.3) %
same,Lp (a) Percent change from Baseline Median (IQR),AMR101 4 g/d + statin,0.0 (10.0) %
same,Apo A1 Difference from placebo Estimated median,AMR101 4 g/d + statin,−6.9%
same,Apo B Difference from placebo Estimated median,AMR101 4 g/d + statin,−9.3%
same,Apo B/Apo A1 ratio Difference from placebo Estimated median,AMR101 4 g/d + statin,−2.4%
same,Lp (a) Difference from placebo Estimated median,AMR101 4 g/d + statin,0.0%
same,"Apo-B, Change From Baseline, % (median)",[1],−2.2%
same,"Apo-B, End of Treatment (median)",[1],90.0 mg/dL
same,"Apo-B, Median Change From Baseline IPE 4 g/day vs Placebo, %","IPE 4 g/day vs placebo, 12 weeks, Hodges-Lehmann median",−8.8%
